Active and inactive are the calls of the source.
How the values were obtained:
[1] = target: Cytochrome P450 3A4 (Homo sapiens, UniProt P08684);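 note: CYP3A4 tested as one member of a cytochrome P450 panel screen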
[2] = target: Cytochrome P450 2D6 (Homo sapiens, UniProt P10635);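 note: CYP2D6 member of a cytochrome P450 panel assay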
[3] = target: Cytochrome P450 2C19 (Homo sapiens, UniProt P33261); test: Cytochrome panel assay with activity outcomes. Panel member name: p450-cyp2c19 Compounds with AC50 equal or less than 10 uM are considered active; type: functional
Cytochrome P450 2C19, sequence (P33261 whole entry): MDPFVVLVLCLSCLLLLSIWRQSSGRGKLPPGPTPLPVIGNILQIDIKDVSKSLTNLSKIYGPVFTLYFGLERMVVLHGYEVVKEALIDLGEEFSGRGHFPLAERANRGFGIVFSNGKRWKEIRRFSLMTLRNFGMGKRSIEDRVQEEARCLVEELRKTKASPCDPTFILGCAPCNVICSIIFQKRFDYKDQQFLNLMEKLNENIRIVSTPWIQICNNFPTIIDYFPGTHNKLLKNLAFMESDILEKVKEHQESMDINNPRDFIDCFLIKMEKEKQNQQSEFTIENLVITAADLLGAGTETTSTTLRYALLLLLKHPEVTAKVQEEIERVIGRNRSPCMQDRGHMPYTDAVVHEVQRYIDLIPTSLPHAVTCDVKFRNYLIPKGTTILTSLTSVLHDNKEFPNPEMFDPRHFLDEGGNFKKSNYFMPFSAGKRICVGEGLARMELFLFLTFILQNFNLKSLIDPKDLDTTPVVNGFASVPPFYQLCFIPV

[4] = test system: Streptococcus sp. 'group A'; test: growth inhibition of control SK(-) GAS strain, dose response, counter-screen for streptokinase expression inhibitor project, luminescence, kanamycin, BacTiterGlo, confirmation (AID 1900); type: functional, organism-based
[5] = test system: Streptococcus; test: Group A Streptococcus viability loss, dose response, counter-screen for streptokinase expression inhibitor project, luminescence, BacTiterGlo (AID 1915); type: functional, organism-based;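 note: potency for reduction of bacterial viability or growth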
[6] = target: T1, Streptokinase A (Streptococcus pyogenes serotype M1, UniProt P10520); test: S. pyogenes streptokinase expression inhibitors, potency, dose response, plasminogen activation absorbance, OD405 (AID 1914); type: functional, Streptococcus pyogenes M1 GAS;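 note: secreted streptokinase activity via plasminogen activation per viability signal from cell pellet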
T1 sequence (P10520 whole entry): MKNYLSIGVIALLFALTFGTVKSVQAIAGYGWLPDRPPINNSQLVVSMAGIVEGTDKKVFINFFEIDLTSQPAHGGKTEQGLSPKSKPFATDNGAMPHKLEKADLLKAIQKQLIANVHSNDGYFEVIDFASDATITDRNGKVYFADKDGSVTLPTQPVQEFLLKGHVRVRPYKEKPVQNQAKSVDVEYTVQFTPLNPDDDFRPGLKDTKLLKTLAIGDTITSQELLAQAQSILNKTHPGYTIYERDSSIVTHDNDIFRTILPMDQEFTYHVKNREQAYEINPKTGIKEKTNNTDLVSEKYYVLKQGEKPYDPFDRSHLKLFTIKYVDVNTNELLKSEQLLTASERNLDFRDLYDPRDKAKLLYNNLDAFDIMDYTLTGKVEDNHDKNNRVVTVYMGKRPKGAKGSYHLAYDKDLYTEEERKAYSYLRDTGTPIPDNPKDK

[7] = inhibitors of intracellular T. cruzi replication, confirmation, NIH3T3 host cells, beta-gal luminescence (AID 2044); type: functional, cell-based;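 note: intracellular parasites grown in NIH/3T3 mouse fibroblasts as host cells; luminescent beta-galactosidase reporter signal from transgenic T. cruzi replicating inside host cells; inhibitors lower the luminescence signal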
[8] = cytotoxicity toward NIH3T3 fibroblasts, dose response, counter-screen, cell-based, ATP luminescence, mouse fibroblasts (AID 2010); type: functional;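 note: cells exposed to compound for about 90 hours before reading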
[9] = target: Cytochrome P450 2C9 (Homo sapiens, UniProt P11712)
Cytochrome P450 2C9, sequence (P11712 whole entry): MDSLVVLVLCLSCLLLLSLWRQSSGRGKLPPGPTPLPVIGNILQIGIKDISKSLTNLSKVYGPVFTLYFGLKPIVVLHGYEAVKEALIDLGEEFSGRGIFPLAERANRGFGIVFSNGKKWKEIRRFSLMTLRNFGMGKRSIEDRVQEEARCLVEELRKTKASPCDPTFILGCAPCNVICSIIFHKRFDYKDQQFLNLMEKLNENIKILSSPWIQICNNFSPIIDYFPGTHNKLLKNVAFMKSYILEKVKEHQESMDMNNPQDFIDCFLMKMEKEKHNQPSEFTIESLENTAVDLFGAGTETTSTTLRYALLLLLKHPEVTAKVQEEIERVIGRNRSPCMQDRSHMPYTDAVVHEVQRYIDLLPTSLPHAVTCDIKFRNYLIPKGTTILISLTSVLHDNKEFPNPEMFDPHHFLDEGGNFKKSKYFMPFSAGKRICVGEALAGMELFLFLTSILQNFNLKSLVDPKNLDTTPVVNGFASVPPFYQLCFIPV

Cytochrome P450 2D6, sequence (P10635 whole entry): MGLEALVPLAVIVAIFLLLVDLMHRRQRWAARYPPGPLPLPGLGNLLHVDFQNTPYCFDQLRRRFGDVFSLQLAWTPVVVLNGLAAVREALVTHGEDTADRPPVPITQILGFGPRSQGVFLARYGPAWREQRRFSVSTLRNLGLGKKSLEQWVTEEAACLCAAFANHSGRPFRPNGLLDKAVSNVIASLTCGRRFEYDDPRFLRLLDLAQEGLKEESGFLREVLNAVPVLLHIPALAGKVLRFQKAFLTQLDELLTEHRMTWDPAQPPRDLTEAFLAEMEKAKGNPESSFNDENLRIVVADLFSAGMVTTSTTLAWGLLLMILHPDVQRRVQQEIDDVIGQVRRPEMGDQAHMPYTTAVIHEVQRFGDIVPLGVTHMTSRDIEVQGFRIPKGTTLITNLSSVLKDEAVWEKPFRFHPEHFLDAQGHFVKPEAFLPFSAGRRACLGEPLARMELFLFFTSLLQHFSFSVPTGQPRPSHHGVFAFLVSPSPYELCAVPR
Cytochrome P450 3A4, sequence (P08684 whole entry): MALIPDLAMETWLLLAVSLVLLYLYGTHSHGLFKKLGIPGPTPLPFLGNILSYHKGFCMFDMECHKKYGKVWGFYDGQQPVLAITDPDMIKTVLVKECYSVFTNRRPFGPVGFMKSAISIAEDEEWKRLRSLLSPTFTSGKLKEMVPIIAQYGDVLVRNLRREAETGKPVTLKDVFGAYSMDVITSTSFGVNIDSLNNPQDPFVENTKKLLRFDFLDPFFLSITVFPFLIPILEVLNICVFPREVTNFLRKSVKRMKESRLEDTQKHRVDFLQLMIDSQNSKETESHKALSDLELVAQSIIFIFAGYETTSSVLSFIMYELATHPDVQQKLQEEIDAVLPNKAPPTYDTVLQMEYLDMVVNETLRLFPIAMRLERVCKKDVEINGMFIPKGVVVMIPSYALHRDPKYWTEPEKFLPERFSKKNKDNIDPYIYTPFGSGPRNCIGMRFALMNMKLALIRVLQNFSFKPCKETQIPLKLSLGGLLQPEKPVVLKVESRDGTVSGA

Compound: CCc1cc2c(nc1CC)CCN(CC/C(C)=N/OC[C@@H](O)COCc1ccco1)C2
- AC50 [1]: 3.16 µM (inconclusive)
- AC50 [2]: 3.98 µM (inconclusive)

Compound: O=C(N/N=C/c1ccco1)c1ccccn1
- AC50 [3]: inconclusive

Compound: COc1ccc2c3ncn(CCc4c[nH]cn4)c(O)c-3nc2c1
- EC50 [4]: > 150 µM (not active)
- EC50 [5]: > 150 µM (not active)
- EC50 [6]: > 150 µM (not active)

Compound: O=C(CCN1C(=O)/C(=C/c2ccccc2)SC1=S)NCCCN1CCOCC1
- EC50 [7]: 2.62 µM (active)
- EC50 [8]: 8.78 µM (active)

Compound: O=[N+]([O-])c1cc(F)c(N2CCOCC2)cc1N1CCCCC1
- AC50 [1]: 17.8 µM (inconclusive)

Compound: CC(=O)N1CCc2cc(S(=O)(=O)N3CCc4ccccc43)ccc21
- EC50 [4]: > 150 µM (not active)
- EC50 [5]: > 150 µM (not active)
- EC50 [6]: > 150 µM (not active)

Compound: O=C1c2ccccc2CCC12N=NCC2c1ccc(Br)cc1 (stereo not drawn)
- EC50 [4]: 22.6 µM (active)
- EC50 [5]: > 150 µM (not active)
- EC50 [6]: 23.7 µM (active)

Compound: O=P(O)(CCc1ccccc1)C(O)c1ccccc1 (stereo not drawn)
- AC50 [2]: 35.5 µM (inconclusive)

Compound: Cc1nc2sccc2c(=O)n1-c1ccccc1Cl
- AC50 [2]: 14.1 µM (inconclusive)

Compound: CC(c1ccccc1C(O)c1ccccc1)N(C)C (stereo not drawn)
- AC50 [9]: 0.0355 µM (inconclusive)

Compound: CC(C)C(NC(=O)OCc1ccccc1)C(=O)O (stereo not drawn)
- AC50 [9]: 11.2 µM (inconclusive)

Compound: N[C@H]1C[C@H]1c1ccccc1
- AC50 [9]: 12.6 µM (inconclusive)
- AC50 [2]: 12.6 µM (inconclusive)

Compound: COc1cccc(Cn2c(=O)c(-c3cccs3)nc3cnc(N4CCOCC4)nc32)c1
- AC50 [9]: 25.1 µM (inconclusive)

Compound: CCN(CC)S(=O)(=O)c1ccc(N2CCOCC2)c(NC(=O)C2CSC3(C)CCC(=O)N23)c1 (stereo not drawn)
- EC50 [4]: > 150 µM (not active)
- EC50 [5]: > 150 µM (not active)
- EC50 [6]: > 150 µM (not active)

Compound: Cc1ccc(OCCn2cnc3cc([N+](=O)[O-])ccc3c2=O)cc1
- EC50 [7]: 0.366 µM (active)
- EC50 [8]: > 30 µM (not active)

Compound: O=S(=O)(c1ccccc1)N1CCC2(CCCN(Cc3nccs3)C2)CC1
- AC50 [3]: inconclusive

Compound: O=C(CN1CCCCCCC1)N/N=C/c1ccc([N+](=O)[O-])o1
- EC50 [7]: 1.34 µM (active)
- EC50 [8]: > 60 µM (not active)

Compound: NC(=O)C1(N2CCCCC2)CCN(C(=O)c2ccc(-n3cnnn3)cc2)CC1
- AC50 [2]: 1.58 µM (inconclusive)

Compound: COCCn1c(C(=O)N2CCCC2)cc2c1C[C@H]1CN(C(=O)c3ccccc3)[C@@](Cc3ccc(OC)cc3)(C(=O)OC)[C@@H]21
- AC50 [9]: 39.8 µM (inconclusive)
- AC50 ([3]; read-out: AC50): 39.8 µM (inconclusive)

Compound: O=C(Nc1ccccc1)N1CCC2(CC1)CCN(S(=O)(=O)c1ccccc1)CC2
- AC50 [2]: 39.8 µM (inconclusive)

Compound: CCN(CC)S(=O)(=O)c1cccc(C(=O)/C=C2/N(C)c3ccccc3C2(C)C)c1
- EC50 [7]: 0.739 µM (active)
- EC50 [8]: > 60 µM (inconclusive)

Compound: COc1ccc(S(=O)(=O)Nc2ccc(F)cc2)c(C)c1C
- AC50 [2]: 0.447 µM (inconclusive)

Compound: COc1cc(C(=O)OC(C)C(=O)Nc2ccc3c(c2)OCO3)ccc1OCc1c(C)noc1C (stereo not drawn)
- AC50 [2]: 28.2 µM (inconclusive)

Compound: COc1ccc2c(c1)-c1c(sn(-c3ccc(OC)c(OC)c3)c1=S)C(C)(C)N2
- AC50 [9]: 5.01 µM (inconclusive)

Compound: C[C@@H](C[C@@H](O)[C@H](O)C(C)(C)O)[C@@H]1CC[C@]2(C)C3=CC[C@H]4C(C)(C)C(=O)CC[C@]4(C)[C@H]3CC[C@@]12C
- EC50 [4]: 3.13 µM (active)
- EC50 [5]: 5.03 µM (active)
- EC50 [6]: > 150 µM (not active)

Compound: Cc1ccc(C(=O)/C=C(\O)C(=O)NC23CC4CC(CC(C4)C2)C3)cc1
- EC50 [4]: 4.07 µM (active)
- EC50 [5]: > 150 µM (not active)
- EC50 [6]: > 150 µM (not active)

Compound: Cn1cccc1C(=O)N1CCC[C@@]2(CCN(Cc3cc(C(F)(F)F)cc(C(F)(F)F)c3)C2)C1
- AC50 [9]: 39.8 µM (inconclusive)
- AC50 ([3]; read-out: AC50): 39.8 µM (inconclusive)

Compound: CN(C)c1nc(N)ncc1-c1ccc(Oc2ccccc2)cc1
- EC50 [7]: 0.231 µM (active)
- EC50 [8]: > 60 µM (not active)

Compound: O=S(=O)(c1cnccc1N1CCN(/N=C/c2ccccc2)CC1)N1CCCCC1
- AC50 [2]: 25.1 µM (inconclusive)

Compound: C=CCn1c(=O)c(C(=O)NCc2ccccc2)c(O)c2ccccc21
- EC50 [4]: 20.4 µM (active)
- EC50 [5]: > 150 µM (not active)
- EC50 [6]: 42.2 µM (active)

Compound: C=CCc1cc(/C=C2/NC(=O)N(CC)C2=O)cc(OCC)c1OCc1ccc(C(=O)O)cc1
- EC50 [4]: 12.5 µM (active)
- EC50 [5]: 105 µM (active)
- EC50 [6]: > 150 µM (not active)

Compound: CO[C@@H]1COC(=O)[C@@H](CCSC)NC(=O)C/C=C\[C@@H](C)COC(=O)CCC[C@H]1C
- AC50 [1]: 3.98 µM (inconclusive)

Compound: CCC(C)(C)NC(=NC#N)Nc1cccnc1
- AC50 [2]: 39.8 µM (inconclusive)

Compound: CC1(C)CC(=O)C2=C(C1)Oc1nc3ccccc3cc1C2C(C#N)C#N (stereo not drawn)
- AC50 [2]: 0.112 µM (inconclusive)

Compound: COc1ccc(CCNC(=O)c2cccc(NS(=O)(=O)c3ccccc3F)c2)cc1OC
- EC50 [4]: > 150 µM (not active)
- EC50 [5]: > 150 µM (not active)
- EC50 [6]: > 150 µM (not active)

Compound: COc1ccc(-n2c(=O)c(-c3cccc(F)c3)nc3cncnc32)cc1
- AC50 ([3]; read-out: AC50): 31.6 µM (inconclusive)

Compound: OC[C@@H]1O[C@@H](O)[C@H](/N=C\c2ccc3c(c2)OCO3)[C@@H](O)[C@@H]1O
- AC50 [3]: inconclusive

Compound: Cc1ccc2c(c1)C(=O)[C@@]1(O)CCN(c3ccccc3)C1=N2
- AC50 [2]: 39.8 µM (inconclusive)

Compound: COc1ccc(NC(=O)CCNS(=O)(=O)c2ccc3c(c2)CCC(=O)N3)cc1
- AC50 [9]: 4.47 µM (inconclusive)

Compound: COc1cc(-c2cc(C(=O)Nc3ccc(S(=O)(=O)NCc4ccco4)cc3)c3ccccc3n2)cc(OC)c1OC
- EC50 [7]: 1.62 µM (active)
- EC50 [8]: > 60 µM (not active)

Compound: CN(C)C(=O)c1ccc(-c2cncnc2NCc2cccs2)cc1
- AC50 [2]: 39.8 µM (inconclusive)

Compound: c1ccc2c(c1)C(=NC1CCCCC1)N=C2NC1CCCCC1
- EC50 [7]: 1.27 µM (active)
- EC50 [8]: > 60 µM (not active)

Compound: COc1ccc(COc2cc(-c3cccc(OC)c3)nc3ccc(NC(C)=O)cc23)cc1
- EC50 [7]: 0.728 µM (active)
- EC50 [8]: > 60 µM (not active)

Compound: COc1ccc(C(=O)C2CCCN(Cc3c(C)[nH]c4ccccc34)C2)c(OC)c1 (stereo not drawn)
- EC50 [7]: 0.299 µM (active)
- EC50 [8]: > 60 µM (not active)

Compound: COc1ccc(NC(=O)CN(C)C(=O)/C=C/c2cn(-c3ccccc3)nc2-c2ccc(C)cc2)cc1
- EC50 [7]: 2.17 µM (active)
- EC50 [8]: > 60 µM (not active)
- EC50 [5]: 114 µM (active)
- EC50 [6]: > 150 µM (not active)

Compound: CCOc1ccc(CC(C(N)=O)C(N)=O)cc1CN(C)C
- AC50 [2]: 17.8 µM (inconclusive)
- AC50 ([3]; read-out: AC50): 22.4 µM (inconclusive)

Compound: N[C@H](Cc1ccc2oc3cc(=O)c4ccccc4c-3nc2c1)C(=O)O
- AC50 [1]: 3.98 µM (inconclusive)

Compound: Cc1ccc(S(=O)(=O)N(CC(=O)Nc2cccc(N(C)S(C)(=O)=O)c2)c2ccc(Cl)c(Cl)c2)cc1
- EC50 [7]: 2.14 µM (active)
- EC50 [8]: > 60 µM (not active)

Compound: COc1ccc(S(=O)(=O)NCc2ccc(C(=O)N3CCN(c4ccccn4)CC3)cc2)cc1
- AC50 ([3]; read-out: AC50): 7.94 µM (inconclusive)

Compound: Cc1cc(NCCO)c2ccccc2n1
- AC50 ([3]; read-out: AC50): 39.8 µM (inconclusive)

Compound: O=C(CN(c1ccc(Cl)c(C(F)(F)F)c1)S(=O)(=O)c1ccccc1)N/N=C/c1cccc2c1OCCO2
- EC50 [4]: 8.38 µM (active)
- EC50 [5]: 95.3 µM (active)
- EC50 [6]: 32.9 µM (active)

Compound: COCC(=O)N1CCC2(CCCN(c3ccncc3)C2)CC1
- AC50 [1]: 25.1 µM (inconclusive)

Compound: O=C(CSc1ccc(Cl)cc1)NC1=NN(c2ccccc2)C(=O)C1
- EC50 [4]: 7.47 µM (active)
- EC50 [5]: 7.17 µM (active)
- EC50 [6]: 9.33 µM (inconclusive)

Compound: CC1=C(C#N)c2nc(N)c(C#N)c(C)c2/C1=C\c1ccc(C)cc1
- EC50 [4]: 4.38 µM (active)
- EC50 [5]: > 150 µM (not active)
- EC50 [6]: 12.3 µM (active)

Compound: Cc1cc(Nc2ccccc2)nn1C(=O)c1ccc(Br)cc1
- EC50 [4]: 20.6 µM (active)
- EC50 [5]: > 150 µM (not active)
- EC50 [6]: > 150 µM (not active)

Compound: Cc1nc2cnc(N3CCNCC3)nc2n(CCc2ccccc2)c1=O
- AC50 [9]: 39.8 µM (inconclusive)

Compound: COc1ccc(COC2OC[C@]3(C)[C@H]4C5=C(CN3C(=O)OC(C)(C)C)[C@H](C)C(CO)C(CO)C5CC[C@@H]24)cc1 (stereo partly drawn)
- AC50 ([3]; read-out: AC50): 39.8 µM (inconclusive)

Compound: CN(C)C(=O)CN(c1ccc2c(c1)OCO2)S(C)(=O)=O
- AC50 [9]: 0.178 µM (inconclusive)

Compound: CCCCSc1ccc2nc(-c3ccc(C#N)cc3)cn2c1
- EC50 [4]: 13.1 µM (active)
- EC50 [5]: 14.4 µM (active)
- EC50 [6]: > 150 µM (not active)

Compound: O=C(C[C@H](c1ccccc1)c1c(O)c2ccccc2oc1=O)c1ccccc1
- AC50 [1]: 3.16 µM (inconclusive)

Compound: O/N=C/c1ccccc1OCc1ccc(Cl)cc1
- AC50 [2]: 22.4 µM (inconclusive)
- AC50 ([3]; read-out: AC50): 2.82 µM (inconclusive)
